Earlier results, collected in patent US20040186084A1, “Triamcinolone formulations and methods for their preparation and use” (Akorn, Inc., priority 2003, published 2004).

CC1(C)O[C@@H]2C[C@H]3[C@@H]4CCC5=CC(=O)C=C[C@]5(C)[C@@]4(F)[C@@H](O)C[C@]3(C)[C@]2(C(=O)CO)O1 [triamcinolone acetonide, (11β,16α)-9-fluoro-11,21-dihydroxy-16,17-[1-methylethylidenebis(oxy)]pregna-1,-4-diene-3,20-dione]
solubility in organic solvents (methanol, acetone and ethyle acetate): sparingly soluble | solubility in water (water): relatively insoluble
